Assay results reported in patent US6723710B2, “Compositions for inhibiting arginase activity” (The Trustees of the University of Pennsylvania, priority 1997, dated 2004).

B1: Recombinant rat liver arginase (Rattus norvegicus) (protein)
chain: MSSKPKPIEIIGAPFSKGQPRGGVEKGPAALRKAGLVEKLKETEYNVRDHGDLAFVDVPNDSPFQIVKNPRSVGKANEQLAAVVAETQKNGTISVVLGGDHSMAIGSISGHARVHPDLCVIWVDAHTDINTPLTTSSGNLHGQPVAFLLKELKGKFPDVPGFSWVTPCISAKDIVYIGLRDVDPGEHYIIKTLGIKYFSMTEVDKLGIGKVMEETFSYLLGRKKRPIHLSFDVDGLDPVFTPATGTPVVGGLSYREGLYITEEIYKTGLLSGLDIMEVNPTLGKTPEEVTRTVNTAVALTLSCFGTKREGNHKPETDYLKPPK
notes: made in house

Columns and labels:
[1] = test system: arginase activities of the various tissues; test: arginase activity in tissue homogenates (liver, IAS, rectum, brain) with NO synthase inhibitor; assay type: biochemical, opossum; conditions: 80 micromolar; basal and in the presence of L-HO-Arg
Experimental: Tissue samples of the opossum internal anal sphincter muscle (IAS), adjoining rectal tissue, liver, and brain were homogenized using an ULTRATURRAX™ tissue homogenizer (Tekamr, Cincinnati, Ohio) in a solution comprising 10 millimolar Tris-HCl, 150 millimolar KCl, and 25 millimolar MnCl2, at pH 7.4. The homogenates were dialyzed overnight against the same solution. […]
Arginase activity in tissue homogenates was evaluated using the radioactive L-[guanidino^14C]arginine assay of Rüegg and Russell (1980, Anal. Biochem. 102:206-212). […] Urea was separated from non-reacted L-[guanidino-^14C]arginine by treatment with 200 μl of 1:1 v/v slurry of DOWEX™ 50W-X8 in water, and quantitated by adding 200 microliters of the supernatant from the DOWEX™ treatment to 3 milliliters of LIQUISCENT™ (National Diagnostics) for liquid scintillation counting in a Beckman LS 5000CE counter. The data were analyzed using double-reciprocal plots of the initial velocity measurements; standard errors were determined by regression analysis.
Thus, it is possible that tissue variations in inhibition of arginase activities by L-HO-Arg could be due to depletion of added L-HO-Arg by conversion to NO. In order to test this possibility, the effects of L-HO-Arg on arginase activities in the tissue homogenates were determined in the presence of the NO synthase inhibitor L-NNA.

[2] = test system: internal anal sphincter (IAS) smooth muscle; test: NANC nerve-mediated relaxation of IAS smooth muscle strips by electrical field stimulation; design: species or system opossum (Didelphis virginiana); conditions: L-NNA 3×10^−6 molar
[3] = substrate: N=C(N)Nc1cccc([N+](=O)[O-])c1; test: continuous chromogenic arginase assay with substrate 1-nitro-3-guanidinobenzene (compound 18); assay type: biochemical, rat; conditions: other: as substrate, bicine pH 9.0
Experimental: The activity of wild-type arginase was monitored spectrophotometrically using a Pharmacia BIOTECH ULTROSPEC™ 2000. Assays were performed in a solution comprising 100 micromolar MnCl2 and 50 millimolar bicine-NaOH (pH 9.0). […] Eadie-Hofstee plots were used to analyze the data.

Molecule	effect of L-NNA on arginase activities [1]	IAS relaxation in the presence of L-NNA ([2]; 0.5 Hertz EFS) [%]	IAS relaxation in the presence of L-NNA ([2]; 1 Hertz EFS) [%]	IAS relaxation in the presence of L-NNA ([2]; 2 Hertz EFS) [%]	IAS relaxation in the presence of L-NNA ([2]; 5 Hertz EFS) [%]	Km [3] [millimolar]
N=C(NCCC[C@H](N)C(=O)O)N[N+](=O)[O-] [L-NNA, N^ω-nitro-L-arginine]	no significant effect	0±0	0.6±0.6	1.8±1.1	5.4±2.1	
B1						1.6±0.2
